Laboratory results published in US20220145295A1, “ENZYMATIC RNA SYNTHESIS” (President and Fellows of Harvard College, priority 2018, published 2022).

Assays:
Type in all cases: biochemical
[1] = biological target: T1, S. pombe Cid1 poly(U) polymerase (Schizosaccharomyces pombe, UniProt O13833); experiment: Uncontrolled extension with natural and modified nucleotides by S. pombe Cid1 poly(U) polymerase (gel, RNA kinetic assay); conditions: for incorporation of natural ribonucleotides by poly(U) polymerase: 1.0 mM nucleotide, 5′-Cy5-poly rU-15-mer, 37° C., 30 minutes, gel and RNA kinetic assay; for effect of inorganic pyrophosphatase supplementation on RNA synthesis by poly(U) polymerase: 1 mM ribonucleotide, 0.1 units Yeast Inorganic Pyrophosphatase
T1 construct: purchased NEB M0337
T1 sequence (O13833 1-405): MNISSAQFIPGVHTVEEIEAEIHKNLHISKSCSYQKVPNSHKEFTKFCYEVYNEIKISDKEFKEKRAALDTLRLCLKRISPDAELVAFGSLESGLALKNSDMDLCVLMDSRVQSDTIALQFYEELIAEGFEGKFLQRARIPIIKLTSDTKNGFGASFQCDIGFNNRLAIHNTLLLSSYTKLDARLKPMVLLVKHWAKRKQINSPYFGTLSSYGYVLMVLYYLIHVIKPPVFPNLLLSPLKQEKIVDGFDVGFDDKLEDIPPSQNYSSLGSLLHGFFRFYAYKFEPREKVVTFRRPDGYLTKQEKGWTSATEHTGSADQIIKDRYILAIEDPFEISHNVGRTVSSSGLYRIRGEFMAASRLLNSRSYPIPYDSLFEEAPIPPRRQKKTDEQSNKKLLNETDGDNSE

[2] = biological target: T2, S. cerevisiae poly(A) polymerase (Saccharomyces cerevisiae, UniProt P29468); experiment: Modified nucleotide incorporation by S. cerevisiae poly(A) polymerase, denaturing gel electrophoresis; conditions: 37° C., 60 minutes; for incorporation by S. cerevisiae poly(A) polymerase: 2.5 mM modified nucleotide, 0.5 mM Mn^2+, 900 units enzyme
T2 construct: purchased Thermo 74225Z25KU
T2 sequence (P29468 whole entry): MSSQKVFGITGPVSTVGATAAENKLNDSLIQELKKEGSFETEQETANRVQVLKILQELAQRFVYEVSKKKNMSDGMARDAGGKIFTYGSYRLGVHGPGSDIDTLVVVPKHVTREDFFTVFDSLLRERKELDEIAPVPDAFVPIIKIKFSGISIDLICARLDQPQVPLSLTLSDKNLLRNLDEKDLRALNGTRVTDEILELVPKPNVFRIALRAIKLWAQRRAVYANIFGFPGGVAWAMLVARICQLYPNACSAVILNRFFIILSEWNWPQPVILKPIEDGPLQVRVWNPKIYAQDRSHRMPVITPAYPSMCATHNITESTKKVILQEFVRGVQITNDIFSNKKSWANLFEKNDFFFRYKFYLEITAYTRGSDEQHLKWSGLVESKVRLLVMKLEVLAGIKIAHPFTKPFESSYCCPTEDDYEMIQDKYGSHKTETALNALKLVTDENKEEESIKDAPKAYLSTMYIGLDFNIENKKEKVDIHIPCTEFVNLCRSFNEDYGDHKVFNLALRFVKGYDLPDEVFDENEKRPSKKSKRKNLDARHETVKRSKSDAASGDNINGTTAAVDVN
Experimental: FIGS. 4A and 4B. […] All 2′-modified ribonucleotides were at a final concentration of 2.5 mM and incubated at 37° C. for 60 minutes. The control reaction consisted of all reaction components except nucleotide. […] The negative reaction consisted of all reaction components except nucleotide.
The efficiency of S. cerevisiae poly(A) polymerase (Thermo 74225Z25KU) for incorporating of several 2′-modified was evaluated. The modified nucleotides evaluated included the following: 2′-F-rATP (Trilink N-1007), 2′-Azido-rATP (Trilink N-1045), 2′-Amino-rATP (Trilink N-1046), and 2′-O-Methyl rATP (Trilink N-1015). Extension reactions were supplemented with the appropriate buffers, which included 0.5 mM Mn^2+, 200 pmol of the initiator RNA oligonucleotide, 2.5 mM modified nucleotide, and 900 units of enzyme. Reactions were incubated at 37° C. for 60 minutes before being analyzed with denaturing gel electrophoresis. According to the gel (FIG. 4A), under these reactions conditions S. cerevisiae poly(A) polymerase incorporates all 2′-modified nucleotides (2′-Amino-, 2′-O-Methyl-, 2′-F-, and 2′-Azido-rATP). […] Under the same reaction conditions, the reversible terminator nucleoside triphosphate, 2′-O-allyl-rATP, was tested for controlled incorporation by S. cerevisiae poly(A) polymerase.

[3] = biological target: T3, S. pombe poly(U) polymerase (Schizosaccharomyces pombe, UniProt O13833); experiment: RNA synthesis by S. pombe poly(U) polymerase with competitive inhibitor (non-hydrolyzable) nucleotide; conditions: with UTP, 30 minutes at 37° C.
T3 sequence (O13833 1-405): T1 sequence (O13833 1-405)

Human polymerase μ R387K = biological target: T4, Human polymerase μ R387K (Homo sapiens, UniProt Q9NP87, R387K); experiment: dATP / rATP incorporation by polymerase μ R387K, denaturing gel electrophoresis; conditions: 0.25 mM Mn^2+ and Mg^2+; for incorporation by polymerase μ R387K: poly dT-15-mer initiator
T4 construct: His-tag (pET-28c vector); made in house; host or cells: E. coli (T7 Express)
T4 sequence (Q9NP87 whole entry R387K): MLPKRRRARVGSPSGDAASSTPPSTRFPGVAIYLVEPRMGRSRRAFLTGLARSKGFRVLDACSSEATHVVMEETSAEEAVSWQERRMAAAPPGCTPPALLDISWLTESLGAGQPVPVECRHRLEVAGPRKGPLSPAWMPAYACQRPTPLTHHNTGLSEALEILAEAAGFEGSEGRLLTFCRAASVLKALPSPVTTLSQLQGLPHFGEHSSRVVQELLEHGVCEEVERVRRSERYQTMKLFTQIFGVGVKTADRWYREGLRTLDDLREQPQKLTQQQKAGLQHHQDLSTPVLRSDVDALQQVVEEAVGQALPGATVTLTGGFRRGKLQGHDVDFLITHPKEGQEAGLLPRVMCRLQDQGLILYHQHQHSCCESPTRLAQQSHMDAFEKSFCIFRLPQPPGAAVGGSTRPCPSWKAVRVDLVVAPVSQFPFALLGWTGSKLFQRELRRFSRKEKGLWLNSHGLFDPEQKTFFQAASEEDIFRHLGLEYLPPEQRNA
Experimental: FIGS. 3A to 3C. […] Denaturing gel electrophoresis analysis of dATP incorporation (FIG. 3B) and rATP incorporation (FIG. 3C) at nucleotide concentrations of 200-50 μM and 5.0-0.62 mM for dATP and rATP, respectively. These reactions were supplemented with 0.25 mM Mn^2+ and Mg^2+. The control reaction consisted of all reaction components except nucleotide. For all reactions, the initiator oligonucleotide was a HPLC-purified poly dT-15-mer.
Human polymerase μ R387K was expressed and purified as described in the materials and methods. Because it was unknown under which reaction conditions polymerase μ R387K functioned optimally, several reaction parameters were initially evaluated. […] Thus, polymerase p R387K, a confirmed DNA/RNA-directed polymerase, is useful for controlled enzymatic RNA synthesis.

[4] = biological target: T3, S. pombe poly(U) polymerase; experiment: Controlled (n+1) extension with reversible terminator nucleotides by S. pombe poly(U) polymerase; conditions: 37° C.
[5] = biological target: T5, N-terminus His^6-tagged S. pombe poly(U) polymerase (Schizosaccharomyces pombe, UniProt O13833); experiment: Activity of expressed N-terminus His6-tagged S. pombe poly(U) polymerase with 2′-O-allyl-ATP; conditions: 1 mM nucleotide, approximately 100 pmol of initiator oligonucleotide, 10 μL, 30 seconds at 37° C.
T5 construct: made in house; host or cells: E. coli (T7 Express)
T5 sequence (O13833 1-405): T1 sequence (O13833 1-405)
Experimental: FIGS. 13A and 13B. […] The expected molecular weight of the expressed N-terminus His^6-tagged S. pombe poly(U) polymerase is approximately 45 kDa. […] Reactions were supplemented with increasing amounts of initiator oligonucleotide (from 20 pmol to 1000 pmol) to determine the relative conversion rates as a function of initiator oligonucleotide material as performed by concentrated N-terminus His^6-tagged S. pombe poly(U) polymerase. All reaction volumes were 10 μL, the initiator oligonucleotide was a poly-rU-15-mer labeled with a 5′-Cy5 fluorophore. Reactions were incubated at 37° C. for 30 seconds. The control reaction contained all reaction components (initiator oligonucleotide was 20 pmol) with the exception of reversible terminator nucleotide.
The primary sequence for S. pombe poly(U) polymerase (UniProtKB—O13833) was modified by adding the amino acids “[…]” to the N-terminus of the enzyme. These amino acids encode for an N-terminus His^6-tag with the appropriate linkers. Using the protocol outlined in the material and methods section, N-terminus His^6-tagged S. pombe poly(U) polymerase was expressed, purified, and concentrated to a small volume. […] Using the N-terminus His^6-tagged S. pombe poly(U) polymerase, it was determined that approximately 100 pmol of initiator oligonucleotide can be converted to the (+1) product with a conversion rate of >99% (FIG. 13B). […]

SMILES: Nc1nc2c(ncn2[C@@H]2O[C@H](COP(=O)(O)OP(=O)(O)OP(=O)(O)O)[C@@H](O)[C@H]2O)c(=O)[nH]1 [rGTP]
- incorporation of natural ribonucleotides by poly(U) polymerase [1]: has activity
- effect of inorganic pyrophosphatase supplementation on RNA synthesis by poly(U) polymerase ([1]; 30 minutes at 37° C.): minimally affected

SMILES: Nc1ccn([C@@H]2O[C@H](COP(=O)(O)OP(=O)(O)OP(=O)(O)O)[C@@H](O)[C@H]2O)c(=O)n1 [rCTP]
- incorporation of natural ribonucleotides by poly(U) polymerase [1]: has activity
- effect of inorganic pyrophosphatase supplementation on RNA synthesis by poly(U) polymerase ([1]; 30 minutes at 37° C.): minimally affected

SMILES: CO[C@@H]1[C@H](O)[C@@H](COP(=O)(O)OP(=O)(O)OP(=O)(O)O)O[C@H]1n1cnc2c(N)ncnc21 [2′-O-Methyl rATP, 2′-O-methyladenosine-5′-triphosphate]
- incorporation by S. cerevisiae poly(A) polymerase [2]: incorporates

SMILES: O=c1ccn([C@@H]2O[C@H](COP(=O)(O)NP(=O)(O)OP(=O)(O)O)[C@@H](O)[C@H]2O)c(=O)[nH]1 [Uridine-5′-[(α,β)-imido]triphosphate]
- concentrations having little effect on controlling the RNA synthesis reaction [3]: below 0.8 mM
- effect of higher concentrations of non-hydrolyzable ribonucleotide on rUTP incorporation [3]: significantly limited the total number of hydrolyzable rUTP incorporations

SMILES: O=c1[nH]cc([C@@H]2O[C@H](COP(=O)(O)OP(=O)(O)OP(=O)(O)O)[C@@H](O)[C@H]2O)c(=O)[nH]1 [Pseudouridine, pseudouridine-5′-triphosphate]
- length of RNA oligonucleotides produced ([1]; 2 mM, 1 mM, or 0.5 mM nucleotide, 0.1 units PPi-ase, 30 minutes at 37° C.): 30-45 nt

SMILES: Nc1ncnc2c1ncn2[C@@H]1O[C@H](COP(=O)(O)OP(=O)(O)OP(=O)(O)O)[C@@H](O)[C@H]1F [2′-F-rATP, 2′-fluoro-2′-deoxyadenosine-5′-triphosphate]
- incorporation by S. cerevisiae poly(A) polymerase [2]: incorporates

SMILES: Nc1ncnc2c1ncn2[C@@H]1O[C@H](COP(=O)(O)OP(=O)(O)OP(=O)(O)O)[C@@H](O)[C@H]1O [rATP]
- effect of inorganic pyrophosphatase supplementation on RNA synthesis by poly(U) polymerase ([1]; 30 minutes at 37° C.): greatest enhancement
- nucleotide concentration needed to produce a response similar to 200 μM of dATP (Human polymerase μ R387K): 5 mM
- incorporation by polymerase μ R387K (Human polymerase μ R387K): can incorporate

SMILES: Nc1ncnc2c1ncn2[C@H]1C[C@H](O)[C@@H](COP(=O)(O)OP(=O)(O)OP(=O)(O)O)O1 [dATP]
- incorporation by polymerase μ R387K (Human polymerase μ R387K): can incorporate

SMILES: O=c1ccn([C@@H]2O[C@H](COP(=O)(O)OP(=O)(O)OP(=O)(O)O)[C@@H](O)[C@H]2O)c(=O)[nH]1 [rUTP]
- effect of inorganic pyrophosphatase supplementation on RNA synthesis by poly(U) polymerase ([1]; 30 minutes at 37° C.): greatest enhancement

SMILES: [N-]=[N+]=N[C@@H]1[C@H](O)[C@@H](COP(=O)(O)OP(=O)(O)OP(=O)(O)O)O[C@H]1n1cnc2c(N)ncnc21 [2′-Azido-rATP, 2′-azido-2′-deoxyadenosine-5′-triphosphate]
- incorporation by S. cerevisiae poly(A) polymerase [2]: incorporates

SMILES: Nc1ncnc2c1ncn2[C@@H]1O[C@H](COP(=O)(O)OP(=O)(O)OP(=O)(O)O)[C@@H](O)[C@H]1N [2′-Amino-rATP, 2′-amino-2′-deoxyadenosine-5′-triphosphate]
- incorporation by S. cerevisiae poly(A) polymerase [2]: incorporates

SMILES: C=CCO[C@@H]1[C@H](O)[C@@H](COP(=O)(O)OP(=O)(O)OP(=O)(O)O)O[C@H]1n1cnc2c(N)ncnc21 [2′-O-allyl-ATP]
- incorporation of reversible terminator by poly(U) polymerase ([4]; 1 mM, 30 minutes, initiator extended by one base): incorporated only a single
- conversion rate of initiator (+0) to extension product (+1) ([4]; optimized conditions, 0.5 minutes): > 99%
- time required to fully convert the initiator oligonucleotide (+0) to extension product (+1) ([4]; optimized conditions, poly-rU-15-mer 5′-Cy5): less than or equal to 0.5 minutes
- conversion rate to the (+1) product [5]: > 99%
- controlled incorporation by S. cerevisiae poly(A) polymerase ([2]; nucleoside triphosphate 250 μM to 4000 μM): positive (n+1) incorporation
